Laboratory results as given in US7348437B2, “Proteomic analysis” (The Scripps Research Institute, priority 2004, dated 2008).

Legend:
[1] = molecular target: neprilysin (Homo sapiens, UniProt P08473); assay: Inhibition of HxBP—Rh labeling of neprilysin in MUM-2B membrane proteome (competitive activity-based profiling, in-gel fluorescence); format: binding; settings: 50 nM HxBP—Rh probe, three trials, 95% confidence limits 12-23 nM
Experimental: (§1) For labeling and detection of MPs using HxBP—Rh, the following technique can be used. […] Kidney and cancer cell proteomes, prepared as known to those having ordinary skill in the art, can be adjusted to 1 mg/ml in 50 mM Tris-HCl buffer (pH 8.0) prior to labeling. […] Labeled samples can be separated by SDS-PAGE, and visualized in-gel with a Hitachi FMBio IIe flatbed scanner (Mirabio). Integrated band intensities can be calculated from several independent labeling reactions, and averaged to provide the level of each enzyme activity in each sample.
(§2) For measuring the IC50 values for MP inhibitors using HxBP—Rh, the following technique can be used. IC50 values for neprilysin, dipeptidylpeptidase III (DPPIII), and leucine aminopeptidase (LAP) can be determined using Prism Software (Graph Pad) from dose-response curves of three trials at concentrations of GM6001 ranging from 0.001-20 μM and 50 nM HxBP—Rh probe. Neprilysin, DPPIII, and LAP assays can be conducted using MUM-2B membrane, MCF7 soluble, and mouse kidney soluble proteomes, respectively.
(§3) Right panels show the concentration-dependence of inhibition of HxBP—Rh labeling of by GM6001 (each data point corresponds to the average of three independent trials and is presented as a percentage of control reactions conducted without GM6001).

[2] = molecular target: T1, MMP-2 (Homo sapiens, UniProt P08253); assay: Activity-based labeling of purified MMP-2 added to mouse kidney proteome; settings: GM6001 5 μM or TIMP-1 200 ng, HxBP—Rh 100 nM
T1 sequence (P08253 110-660): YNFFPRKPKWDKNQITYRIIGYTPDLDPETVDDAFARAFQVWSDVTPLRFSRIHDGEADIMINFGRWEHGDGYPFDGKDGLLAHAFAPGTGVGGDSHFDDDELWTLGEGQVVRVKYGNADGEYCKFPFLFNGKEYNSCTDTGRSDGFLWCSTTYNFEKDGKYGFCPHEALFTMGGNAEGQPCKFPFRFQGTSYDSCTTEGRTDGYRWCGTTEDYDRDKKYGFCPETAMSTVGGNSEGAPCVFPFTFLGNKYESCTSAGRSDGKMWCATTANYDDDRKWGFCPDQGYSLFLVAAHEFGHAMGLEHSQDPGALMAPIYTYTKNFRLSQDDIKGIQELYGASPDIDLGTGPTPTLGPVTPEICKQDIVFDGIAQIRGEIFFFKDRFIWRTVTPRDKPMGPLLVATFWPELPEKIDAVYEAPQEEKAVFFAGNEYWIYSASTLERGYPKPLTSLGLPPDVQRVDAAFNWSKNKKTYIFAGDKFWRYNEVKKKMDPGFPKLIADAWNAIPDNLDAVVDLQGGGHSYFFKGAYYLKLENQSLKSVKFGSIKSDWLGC
Experimental: For labeling and detection of MPs using HxBP—Rh, the following technique can be used. Purified MMP-2 can be diluted in buffer 1 (30 ng of enzyme) and mixed with 100 nM HxBP—Rh in the presence or absence of 5 μM GM6001 or TIMP-1 (80 ng). These mixtures can be pre-incubated on ice for 15 min prior to irradiation at 365 nm for 1 hour (on ice) followed by quenching with one volume of standard 2× SDS/PAGE loading buffer (reducing). Kidney and cancer cell proteomes, prepared as known to those having ordinary skill in the art, can be adjusted to 1 mg/ml in 50 mM Tris-HCl buffer (pH 8.0) prior to labeling. […] Labeled samples can be separated by SDS-PAGE, and visualized in-gel with a Hitachi FMBio IIe flatbed scanner (Mirabio). Integrated band intensities can be calculated from several independent labeling reactions, and averaged to provide the level of each enzyme activity in each sample.
With the reference to FIG. 3A, purified MMP-2 (100 ng) or pro-MMP-2 (100 ng) were added to a mouse kidney proteome (15 μL, 1 μg protein/μL) and treated with HxBP—Rh (100 nM) for 15 min prior to photocrosslinking and analysis by SDS-PAGE and in-gel fluorescence scanning.
FIG. 3B illustrates HxBP—Rh labeling of a serial dilution of purified MMP-2 added to a mouse kidney proteome.

[3] = molecular target: T2, dipeptidylpeptidase III (DPPIII) (Homo sapiens, UniProt Q9NY33); assay: Inhibition of HxBP—Rh labeling of dipeptidylpeptidase III in MCF7 soluble proteome
T2 sequence (Q9NY33 1-737): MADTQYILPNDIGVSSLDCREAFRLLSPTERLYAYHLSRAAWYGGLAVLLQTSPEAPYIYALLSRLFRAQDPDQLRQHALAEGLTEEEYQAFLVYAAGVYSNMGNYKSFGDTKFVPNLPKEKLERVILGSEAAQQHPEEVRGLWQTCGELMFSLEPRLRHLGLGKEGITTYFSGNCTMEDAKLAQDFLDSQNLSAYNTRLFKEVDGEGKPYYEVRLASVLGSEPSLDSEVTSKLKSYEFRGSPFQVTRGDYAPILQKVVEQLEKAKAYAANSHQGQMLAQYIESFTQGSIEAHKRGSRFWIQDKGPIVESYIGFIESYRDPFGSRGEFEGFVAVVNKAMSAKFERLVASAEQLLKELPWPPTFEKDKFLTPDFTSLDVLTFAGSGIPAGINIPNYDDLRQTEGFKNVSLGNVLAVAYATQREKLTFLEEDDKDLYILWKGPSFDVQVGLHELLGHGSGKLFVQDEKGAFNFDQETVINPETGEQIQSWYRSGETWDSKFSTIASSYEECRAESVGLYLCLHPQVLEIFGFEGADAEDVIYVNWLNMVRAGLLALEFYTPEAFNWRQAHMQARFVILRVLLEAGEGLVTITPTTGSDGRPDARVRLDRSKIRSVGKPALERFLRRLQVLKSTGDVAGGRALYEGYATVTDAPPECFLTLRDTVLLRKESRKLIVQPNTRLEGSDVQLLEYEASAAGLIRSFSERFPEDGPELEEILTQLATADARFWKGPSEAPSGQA
Experimental: For labeling and detection of MPs using HxBP—Rh, the following technique can be used. […] Kidney and cancer cell proteomes, prepared as known to those having ordinary skill in the art, can be adjusted to 1 mg/ml in 50 mM Tris-HCl buffer (pH 8.0) prior to labeling. A portion of each cancer cell line proteome sample can be treated with PNGaseF (New England Biolabs) to provide deglycosylated proteomes, as known to those having ordinary skill in the art. Labeled samples can be separated by SDS-PAGE, and visualized in-gel with a Hitachi FMBio IIe flatbed scanner (Mirabio). Integrated band intensities can be calculated from several independent labeling reactions, and averaged to provide the level of each enzyme activity in each sample.
as §2
Shown is a representative HxBP—Rh labeling (100 nM) profile of the soluble proteome from MCF-7 cells. […]

[4] = molecular target: T3, leucine aminopeptidase (LAP) (Mus musculus, UniProt Q9CPY7); assay: Inhibition of HxBP—Rh labeling of leucine aminopeptidase in mouse kidney soluble proteome
T3 sequence (Q9CPY7 1-519): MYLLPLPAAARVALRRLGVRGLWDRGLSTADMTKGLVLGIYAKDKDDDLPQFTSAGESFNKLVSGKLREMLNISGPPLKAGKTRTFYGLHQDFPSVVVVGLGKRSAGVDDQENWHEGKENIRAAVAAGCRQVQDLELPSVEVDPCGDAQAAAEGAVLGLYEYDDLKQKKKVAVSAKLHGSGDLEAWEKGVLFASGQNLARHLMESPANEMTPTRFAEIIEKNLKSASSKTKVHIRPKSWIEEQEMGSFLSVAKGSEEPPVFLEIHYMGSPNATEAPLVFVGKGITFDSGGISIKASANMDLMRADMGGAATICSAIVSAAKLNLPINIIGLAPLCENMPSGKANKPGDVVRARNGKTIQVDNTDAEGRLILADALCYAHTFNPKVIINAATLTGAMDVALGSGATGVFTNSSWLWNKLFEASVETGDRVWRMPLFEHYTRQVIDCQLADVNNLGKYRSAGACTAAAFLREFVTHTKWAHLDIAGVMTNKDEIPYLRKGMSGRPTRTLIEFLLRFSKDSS
Experimental: as §1, §2, §3

Chain of neprilysin (P08473 whole entry): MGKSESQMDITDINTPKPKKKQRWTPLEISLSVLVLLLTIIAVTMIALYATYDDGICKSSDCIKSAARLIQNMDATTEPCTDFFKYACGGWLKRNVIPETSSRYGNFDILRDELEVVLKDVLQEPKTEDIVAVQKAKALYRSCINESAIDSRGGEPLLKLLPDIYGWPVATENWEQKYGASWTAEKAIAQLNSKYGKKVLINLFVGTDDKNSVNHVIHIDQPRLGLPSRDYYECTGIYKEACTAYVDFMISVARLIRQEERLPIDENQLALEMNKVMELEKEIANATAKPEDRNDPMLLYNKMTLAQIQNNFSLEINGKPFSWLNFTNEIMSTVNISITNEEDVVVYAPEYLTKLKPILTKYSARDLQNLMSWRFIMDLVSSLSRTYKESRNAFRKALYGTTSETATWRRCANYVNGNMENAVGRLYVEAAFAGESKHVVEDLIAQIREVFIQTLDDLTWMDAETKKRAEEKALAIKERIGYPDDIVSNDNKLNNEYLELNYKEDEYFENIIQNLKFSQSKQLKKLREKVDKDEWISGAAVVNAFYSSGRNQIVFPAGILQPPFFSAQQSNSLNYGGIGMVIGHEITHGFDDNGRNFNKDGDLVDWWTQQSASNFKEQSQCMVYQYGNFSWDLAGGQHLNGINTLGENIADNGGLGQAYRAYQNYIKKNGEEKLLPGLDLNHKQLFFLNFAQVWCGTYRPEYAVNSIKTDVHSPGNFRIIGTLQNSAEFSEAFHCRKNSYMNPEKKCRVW

| IC50 [1] [nM] | IC50 [3] [nM] | Effect on HxBP—Rh labeling of ~80 kDa protein (DPPIII) ([3]; GM6001 5 μM, HxBP—Rh 100 nM, soluble proteome from MCF-7 cells) | IC50 [4] [nM] | Compound | Effect on HxBP—Rh labeling of MMP-2 in whole proteome [2] |
| --- | --- | --- | --- | --- | --- |
| 17 | 76 | blocked | 111 | CNC(=O)[C@H](Cc1c[nH]c2ccccc12)NC(=O)[C@@H](CC(=O)NO)CC(C)C [GM6001] | blocked |
|  |  |  |  | TIMP-1: inhibitor of MMP-2 used to block probe labeling | blocked |
